# Key:
# Ras-GTP = test: serum-stimulated GTP loading of Ras, kinetic study; type: cell-based, human
# Protocol: Unless otherwise indicated, cells were lysed 48 hours after being treated with lysis buffer, as described in Haklai, et al., supra. Lysates containing 50-100 μg protein were subjected to SDS-PAGE followed by Western immunoblotting, as described in Haklai, et al., supra.; Elad-Sfadia, G., Haklai, R., Ballan, E., Gabius, H. J., Kloog, Y., J. Biol. Chem. 277:37169-75 (2002); Paz, A., Haklai, R., Elad, G., Ballab, E., Kloog, Y., Oncogene 20:7486-93 (2000), with one of the following antibodies: 1:2000 pan-Ras Ab-3; 1:10,000 anti-phospho-ERK Ab; 1:2000 anti-ERK Ab; 1:1000 anti-Akt Ab; 1:2000 anti-phospho-Akt Ab; 1:500 antitubulin Ab; 1:5000 anti-RalA Ab; 1:1000 anti-p120 RasGAP Ab; or 1:200 anti-neurofibromin Ab. The immunoblots were then exposed either to 1:7500 peroxidase goat anti-mouse IgG or to 1:2000 peroxidase goat anti-rabbit IgG. Protein bands were visualized by ECL and quantified by densitometry with Image Master VDS-CL (Amersham) using TINA 2.0 software (Ray Tests). To obtain reliable comparisons between replicated experiments for statistical analysis, a standardization procedure was used, in which the density of each given protein band as recorded with its specific Ab, was normalized. Normalization was achieved by collecting and averaging all the data obtained for a given band (for example, for the Ras-GTP band) in a set of experiments, irrespective of cell type or treatment. The standard average density was defined as 1.0, and each of the individually determined bands was related to this value. Accordingly, the normalized value of a single band would be 1.0 if it was equal to the standard value, or would range between values above and below 1.0 (respectively representing values higher and lower than the standard). The normalized values thus obtained were used to calculate means±SD and, to determine, using Student's t-test, the statistical significance of differences between populations. Lysates containing 500 μg protein were used to determine Ras-GTP by the GST-RBD pull-down assay, and this was followed by Western immunoblotting with pan anti-Ras Ab as described in Elad-Sfadia, G., et al., supra. Lysates containing 500 μg protein were used to determine RalA-GTP by the GST-RalBD pulldown assay, followed by Western immunoblotting with anti-RalA Ab [Wolthuis, R. M., Zwartkruis, F., Moen, T. C., Bos, J. L. Ral. Curr. Biol. 8:471-4 (1998)]. Actin cytoskeletal elements were labeled with rhodamine-phalloidin, and digital fluorescence images were collected on a Zeiss LSM 510 confocal microscope fitted with fluorescein and rhodamine filters, as described in Gana-Weisz, M., et al., supra.
# (§1) First, the time courses of serum-stimulated GTP loading of Ras and serum-stimulated activation of signals downstream of Ras were determined. […]
# non-NF-1 STS26T cells = test: actin stress fibers, rhodamine-phalloidin confocal microscopy; type: cell-based, human; details: 75 μM FTS, mean±SD, n=3, P<0.05
# Protocol: (§2) The human NF-1 MPNST cell lines ST88-14, T265P21 and 90-8 and the non-NF-1 human MPNST cell line STS26T were obtained from Dr. Nancy Ratner. T265P21, 90-8, and ST88-14 cells were maintained in RPMI/15% fetal calf serum (FCS) medium and STS26T cells were maintained in DMEM/10% FCS, as described in Weisz, B., et al., supra. Cells were plated at a density of 1×10^6 cells per 10-cm plate for biochemical and immunoblotting assays, 2.5×10^3 cells/well in 24-well plates for cell-growth assays, or on glass cover slips (5×10^4 cells per 35-mm dish) for labeling of actin cytoskeletal elements. […]
# (§3) Unless otherwise indicated, cells were lysed 48 hours after being treated with lysis buffer, as described in Haklai, et al., supra. […] Protein bands were visualized by ECL and quantified by densitometry with Image Master VDS-CL (Amersham) using TINA 2.0 software (Ray Tests). To obtain reliable comparisons between replicated experiments for statistical analysis, a standardization procedure was used, in which the density of each given protein band as recorded with its specific Ab, was normalized. […] The standard average density was defined as 1.0, and each of the individually determined bands was related to this value. […]
# [1] = test system: NF-1 cell lines T265P21, ST88-14, and 90-8; test: as above; type: cell-based, human; details: T265P21, ST88-14, and 90-8, 75 μM FTS; controls 82%-87%
# Protocol: as §2, §3
# Ras, ERK, or Akt = test: total Ras, ERK, Akt in serum-stimulation experiment; type: cell-based, human; details: STS26T cells, serum-stimulation conditions
# Protocol: Unless otherwise indicated, cells were lysed 48 hours after being treated with lysis buffer, as described in Haklai, et al., supra. […] Protein bands were visualized by ECL and quantified by densitometry with Image Master VDS-CL (Amersham) using TINA 2.0 software (Ray Tests). To obtain reliable comparisons between replicated experiments for statistical analysis, a standardization procedure was used, in which the density of each given protein band as recorded with its specific Ab, was normalized. […] The standard average density was defined as 1.0, and each of the individually determined bands was related to this value. […] Actin cytoskeletal elements were labeled with rhodamine-phalloidin, and digital fluorescence images were collected on a Zeiss LSM 510 confocal microscope fitted with fluorescein and rhodamine filters, as described in Gana-Weisz, M., et al., supra.
# as §1
# [2] = human, doses up to 1800 mg/day; cited from earlier work
smiles,measurement,setting,value
"CC(C)=CCC/C(C)=C/CC/C(C)=C/CSc1ccccc1C(=O)O [FTS, S-farnesylthiosalicylic acid]",duration of the Ras signal in the presence of FTS,"Ras-GTP; NF-1 cells, serum stimulation",5 to 10 min
same,serum-stimulated increase in Ras-GTP,"Ras-GTP; STS26T cells, 20 μM FTS, serum-starved 24 hours, stimulated with 10% serum",strongly inhibited
same,"duration of the serum-stimulated signals (Ras-GTP, phospho-ERK, phospho-Akt)",Ras-GTP; all NF-1 cell lines,shortened the duration of the signals
same,serum-stimulated increase in Ras-GTP,"Ras-GTP; all NF-1 cell lines (T265P21, ST88-14, 90-8)",reduced
same,increase in stress-fiber formation,non-NF-1 STS26T cells,27%±11.9%
same,"cells with stress fibers after FTS, relative to total cell number",[1],11%-20%
same,"total amounts of Ras, ERK, or Akt","Ras, ERK, or Akt",no effect
same,dose-limiting toxicities,[2],no dose-limiting toxicities

# — US20110046223A1, “TREATMENT OF NEUROFIBROMATOSIS” (RAMOT AT TEL-AVIV UNIVERSITY LTD., priority 2006, published 2011)
